In publication PMC9612383, “Biological Activity of NHC-Gold-Alkynyl Complexes Derived from 3-Hydroxyflavones” (Pharmaceutics, 2022):

How the values were obtained:
Caco-2 cells = assay: MTT antiproliferative assay; type: cell-based, Human; conditions: Caco-2 cell line, 72 h incubation, mean ± SE
Experimental: Human colorectal adenocarcinoma Caco-2 cells were kindly provided by Dr. Edith Brot-Laroche (Universite Pierre et Marie Curie-Paris 6 UMR S872, Les Cordeliers, France) and were maintained in a humidified atmosphere of 5% CO2 at 37 °C in Dulbecco’s Modified Eagles medium (DMEM) (Gibco Invitrogen, Paisley, UK) supplemented with 20% fetal bovine serum, 1% non-essential amino acids, 1% penicillin (1000 U/mL), 1% streptomycin ([…]) and 1% amphotericin (250 U/mL). For treatment, gold complexes were initially dissolved in DMSO to a concentration of 20 mM and then diluted on cell culture without fetal bovine serum to the required work concentrations, which was added 24 h post-seeding. Then, cells were incubated at 37 °C for the required time for each assay.
Cell viability was determined with the 3-(4,5-dimethyl-2-thiazoyl)-2,5-diphenyltetrazolium bromide (MTT) assay as previously described by Mármol et al.. For IC50 calculation, cells were grown in 96-well plates at a density of 4000 cells per well and incubated overnight at standard culture conditions. Then, cells were exposed 72 h to 0–20 μM of each gold complex and changes in absorbance were converted into percentage of growth inhibition in comparison to negative control (DMSO. Absorbance was measured with SPECTROstar Nano (BMG Labtech).

[1] = n-Octanol-water distribution coefficient, shake-flask; type: physicochemical; conditions: n-octanol / buffered aqueous solution pH 7.4
Experimental: The n-octanol-water coefficients of the complexes were determined as previously reported using a shake-flask method. Buffered-saline distilled water (100 mL, phosphate buffer [PO4^3−] = 10 mM, [NaCl] = 0.15 M, pH 7.4) and n-octanol (100 mL) were shaken for 72 h to allow saturation of both phases. Approximately 1 mg of the complexes was dissolved in 5 mL of the aqueous phase and 5 mL of the organic phase were added, mixing for 10 min. The resulting emulsion was centrifuged to separate the phases. The concentration of the compounds in each phase was determined using UV absorbance spectroscopy. LogP was defined as log{[compound(organic)]/[compound(aqueous)]}.

[2] = biological target: T1, human recombinant thioredoxin reductase (Homo sapiens, UniProt Q16881); assay: Recombinant human TrxR activity (DTNB); type: biochemical; conditions: 40 μM of complex; p > 0.05
T1 construct: purchased SIGMA SRP6081
T1 sequence (Q16881 151-649 limits assumed): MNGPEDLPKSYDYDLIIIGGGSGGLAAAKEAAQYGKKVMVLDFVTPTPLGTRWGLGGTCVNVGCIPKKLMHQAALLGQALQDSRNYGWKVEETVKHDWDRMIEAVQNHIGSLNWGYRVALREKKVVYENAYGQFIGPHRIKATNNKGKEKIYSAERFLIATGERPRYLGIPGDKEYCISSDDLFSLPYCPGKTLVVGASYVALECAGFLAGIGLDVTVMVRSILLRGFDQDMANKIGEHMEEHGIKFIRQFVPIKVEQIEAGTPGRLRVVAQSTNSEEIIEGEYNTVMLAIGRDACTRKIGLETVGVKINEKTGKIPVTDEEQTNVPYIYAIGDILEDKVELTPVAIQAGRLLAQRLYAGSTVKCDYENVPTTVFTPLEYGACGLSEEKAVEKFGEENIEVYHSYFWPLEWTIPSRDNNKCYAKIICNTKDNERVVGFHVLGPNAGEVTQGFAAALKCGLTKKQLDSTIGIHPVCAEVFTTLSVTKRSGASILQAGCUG
Experimental: A measurement of human recombinant thioredoxin reductase was performed as previously described by Quero et al.. Briefly, gold complex was dissolved in DMSO at the desired concentrations and was incubated for 45 min with recombinant human TrxR (SIGMA SRP6081) at 37 °C in a 96 well plate. 25 μL of reaction mix, composed by 500 μL PBS pH 7.4, 80 μL 100 mM EDTA pH 7.5, 20 μL 0.05% BSA, 20 mM 100 μL NADPH, and 300 μL distilled H2O, was then added to each well. 25 μL of 20 mM 5,5′-dithiobis(2-nitrobenzoic acid) (DNTB), dissolved in 100% EtOH, were added to start the reaction and changes in absorbance at 405 nm were monitored every 10 s for 6 min. For comparison purposes, the activity of recombinant TrxR in presence of DMSO was used as negative control.

[3] = biological target: thioredoxin reductase (TrxR) (Escherichia coli, UniProt P0A9P4); conditions: E. coli cell lysates incubated with complex
Experimental: For sample preparation, E. coli were lysated by sonication. After ultrasonic homogenization, the lysate was centrifuged 1 min at 13,000 rpm and the pellet was resuspended in extraction buffer. […] Both extraction and reaction buffer consisted of 10 mM Tris-HCl, 1 mM EDTA, 100 mM NaCl and protease inhibitor.

E. coli 8739 = assay: Disk diffusion test; type: cell-based; conditions: complex 5 μg, 24 h incubation; diameter including disk (6 mm)
Experimental: (§1) To evaluate the antibacterial potential of gold derivatives, six bacterial strains were selected: E. coli, P. aeruginosa, S. enterica, E. faecalis, L. monocytogenes, S. epidermidis, S. aureus. Dis diffusion assay was performed following Clinical & Laboratory Standards Institute (CLSI) recommendations. […] Plates were and incubated for 22 h ± 2 h at 37 °C ± 1 °C and then the diameter of the inhibition zone was determined.

S. enterica 14028 = assay: Disk diffusion test; type: cell-based; conditions: complex 5 μg, 24 h incubation; diameter including disk (6 mm)
Experimental: as §1

S. aureus 13565 = assay: Disk diffusion test; type: cell-based; conditions: complex 5 μg, 24 h incubation; diameter including disk (6 mm)
Experimental: as §1

S. aureus 2593 = assay: Disk diffusion test; type: cell-based; conditions: complex 5 μg, 24 h incubation; diameter including disk (6 mm)
Experimental: as §1

S. epidermidis = assay: Disk diffusion test; type: cell-based; conditions: complex 5 μg, 24 h incubation; diameter including disk (6 mm)
Experimental: as §1

E. coli 25922 = assay: Disk diffusion test; type: cell-based; conditions: complex 5 μg, 24 h incubation; diameter including disk (6 mm)
Experimental: as §1

L. monocytogenes = assay: Disk diffusion test; type: cell-based; conditions: complex 5 μg, 24 h incubation; diameter including disk (6 mm)
Experimental: as §1

E. coli 13216 = assay: Disk diffusion test; type: cell-based; conditions: complex 5 μg, 24 h incubation; diameter including disk (6 mm)
Experimental: as §1

E. faecalis = assay: Disk diffusion test; type: cell-based; conditions: complex 5 μg, 24 h incubation; diameter including disk (6 mm)
Experimental: as §1

P. aeruginosa = assay: Disk diffusion test; type: cell-based; conditions: complex 5 μg, 24 h incubation; diameter including disk (6 mm)
Experimental: as §1

Chain of thioredoxin reductase (TrxR) (P0A9P4 whole entry): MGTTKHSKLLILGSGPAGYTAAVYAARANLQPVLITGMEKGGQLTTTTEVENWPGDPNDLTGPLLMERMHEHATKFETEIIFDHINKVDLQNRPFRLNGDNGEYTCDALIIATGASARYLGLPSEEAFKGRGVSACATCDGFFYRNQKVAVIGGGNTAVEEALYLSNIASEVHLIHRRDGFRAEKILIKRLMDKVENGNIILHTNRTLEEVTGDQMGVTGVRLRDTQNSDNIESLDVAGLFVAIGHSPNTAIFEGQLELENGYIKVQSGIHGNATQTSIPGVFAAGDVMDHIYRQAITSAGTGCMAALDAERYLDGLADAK

Compound: Cn1cc[n+](C)[c]1[Au-][C]#CCOc1c(-c2ccc(Br)cc2)oc2ccccc2c1=O [1b, [Au(Lb)(IMe)] (R = Br; IMe = C5H10N2)]
- IC50 (Caco-2 cells): 23 ± 2.42 µM
- LogP7.4 (distribution coefficient) [1]: 1.32
- enzymatic activity of recombinant TrxR [2]: no significant changes
- TrxR activity (percentage respect to control) [3]: did not result in a significative reduction of TrxR activity
- Inhibition Zone (E. coli 8739): 11.10 ± 0.08 mm
- Inhibition Zone (S. enterica 14028): 9.39 ± 1.26 mm
- Inhibition Zone (S. aureus 13565): 16.58 ± 1.63 mm
- Inhibition Zone (S. aureus 2593): 13.76 ± 0.54 mm
- Inhibition Zone (S. epidermidis): 25.05 ± 1.48 mm
- Inhibition Zone (E. coli 25922): 9.04 ± 2.17 mm
- Inhibition Zone (L. monocytogenes): 18.50 ± 1.41 mm
- Inhibition Zone (E. coli 13216): 10.95 ± 0.64 mm
- Inhibition Zone (E. faecalis): 12.50 ± 1.41 mm
- Inhibition Zone (P. aeruginosa): -
